{
  "source": "patent US20170072005A1",
  "about": "“COMBINATIONS OF NMDAR MODULATING COMPOUNDS” (NORTHWESTERN UNIVERSITY, priority 2014, published 2017)",
  "assay_type_in_all_cases": "in vivo",
  "key": {"[1]": {"test_system": "adult male C57BL/6 male mice", "assay": "Novel object recognition test (NOR), discrimination index", "protocol": "The discrimination index is calculated using the following formula: (time spent exploring novel object−time spent exploring familiar object)/(total time spent in exploring both the novel and familiar objects).\nNovel Object recognition Test (“NOR”) testing in mice was adapted from (Hashimoto K, Fujita Y, Shimizu E, Iyo M (2005). Phencyclidine-induced cognitive deficits in mice are improved by subsequent subchronic administration of clozapine, but not haloperidol. European journal of pharmacology 519(1-2): 114-117). See also, e.g., Rajagopal, et al., Current Pharmaceutical Design 2014, 20, 1. The NOR box is an open box made out of Plexiglas (52 cm L; 52 cm W; 31 cm H). The dimensions of the box we used for mice was identical to the one used for rats. The box was positioned approximately 30 cm above the floor. The walls of the box have white background, as opposed to the black background in the rat NOR studies. […] Three days prior to testing, mice were habituated to the empty NOR arena for an hour. The NOR test in mice is similar to that previously employed to study rat NOR except that the acquisition and retention trials were 10 min in duration, followed by an intertrial interval (ITI) of 24 hours during which the mice were returned to their home cages, whereas in rats, the acquisition and retention trials were three min in duration separated by a one min ITI (Horiguchi M, Meltzer HY (2012). The role of 5-HT1A receptors in phencyclidine (PCP)-induced novel object recognition (NOR) deficit in rats. Psychopharmacology 221(2): 205-215). We compared 3, 5, and 10 min times for acquisition and retention trial explorations and found 10 minutes to be optimal for reliable data collection. Both trials were recorded for blind scoring later on.\nAll data are expressed as mean±S.E.M. Exploration data were analysed by a two-way analysis of variance (ANOVA). This detected the main effect of drug treatment, the main effect of task, and the interaction between drug treatment and object exploration. When a significant effect was found, further analysis by a post hoc Student's t-test was performed to compare the times spent exploring the novel and familiar object. The primary endpoint was the discrimination index (DI). The DI (novel-familiar/novel+familiar) data were analysed using one-way ANOVA followed by the Bonferroni test when a significant effect was detected by the ANOVA."}, "somatosensory cortex": {"test_system": "somatosensory cortex", "assay": "Attenuation in somatosensory cortex with GLYX-13 pre-treatment followed by ketamine (FIG. 4)"}, "[2]": {"test_system": "2-3 month old male Sprague Dawley rats", "assay": "Stereotypy behaviour (circling and head weaving) in the open field", "protocol": "Vehicle treated animals received saline vehicle injections instead of GLYX-13 and ketamine injections. Animals were placed into the open field immediately after the final dose, and behaviour was analysed for 20 min. N=8-12."}},
  "note": "Entries after “also recorded” stand apart in the source; their conditions may differ. Peptide text beside a SMILES is read from it.",
  "data": [
    {"smiles": "CC(O)C(N)C(=O)N1CCCC1C(=O)N1CCCC1C(=O)NC(C(N)=O)C(C)O", "note": "(stereo not shown) [GLYX-13] (H-TPPT-NH2; configuration not given here)", "values": [
      {"measurement": "Discrimination index (DI) in novel object recognition, reversal of acute ketamine-induced impairment", "setting": "[1]; GLYX-13 3 mg/kg iv 30 min before ketamine 10 mg/kg sc, tested 20 min later, p<0.01 vs ketamine group", "value": "reverses acute ketamine (10 mg/kg sc) induced impairment in novel object recognition; also recorded: significant reversal in DI compared with ketamine group"},
      {"measurement": "Discrimination index (DI) in novel object recognition, reversal of chronic ketamine-induced impairment", "setting": "[1]; mice pre-treated with ketamine 30 mg/kg IP twice daily for 7 days, GLYX-13 1 mg/kg IV 1 hr before testing, p<0.001 vs ketamine group", "value": "reverses chronic ketamine-induced impairment in novel object recognition; also recorded: significant reversal in DI compared with ketamine group"},
      {"measurement": "Discrimination index (DI) in novel object recognition, reversal of chronic PCP-induced impairment", "setting": "[1]; mice pretreated with PCP 10 mg/kg IP twice daily for 7 days, GLYX-13 1 mg/kg IV 1 hr before testing, p<0.001 vs PCP group", "value": "reverses chronic phencyclidine-induced impairment in novel object recognition; also recorded: significant reversal in DI compared with PCP group"},
      {"measurement": "Attenuation in somatosensory cortex", "setting": "somatosensory cortex; pre-treatment with 3 mpk GLYX-13 followed by ketamine", "value": "significant attenuation"},
      {"measurement": "Attenuation in somatosensory cortex", "setting": "somatosensory cortex; pre-treatment with 30 mpk GLYX-13 followed by ketamine", "value": "significant attenuation"},
      {"measurement": "Number of stereotypy behaviour (circling and head weaving), inhibition of ketamine-induced stereotypy", "setting": "[2]; GLYX-13 3 mg/kg iv 30 min before ketamine 10 mg/kg iv, behaviour analysed for 20 min", "value": "inhibits ketamine (10 mg/kg iv) induced stereotypy"}
    ]},
    {"smiles": "CNC1(c2ccccc2Cl)CCCCC1=O", "note": "(stereo not shown) [ketamine, reference compound]", "values": [
      {"measurement": "Discrimination index (DI) in novel object recognition, effect of acute ketamine", "setting": "[1]; ketamine 10 mg/kg sc, tested 20 min later, p<0.0001 vs vehicle group", "value": "significant decrease in DI compared with the vehicle group"},
      {"measurement": "Discrimination index (DI) in novel object recognition, effect of chronic ketamine", "setting": "[1]; ketamine 30 mg/kg IP twice daily for 7 days, then saline vehicle 1 hr before testing, p<0.001 vs vehicle group", "value": "significant decrease in DI compared with the vehicle group"},
      {"measurement": "Number of stereotypy behaviour (circling and head weaving), effect of ketamine", "setting": "[2]; ketamine 10 mg/kg iv, open field, 20 min", "value": "induced stereotypy"}
    ]},
    {"smiles": "c1ccc(C2(N3CCCCC3)CCCCC2)cc1", "note": "[PCP, phencyclidine, reference compound]", "values": [
      {"measurement": "Discrimination index (DI) in novel object recognition, effect of chronic PCP", "setting": "[1]; PCP 10 mg/kg IP twice daily for 7 days, then saline vehicle 1 hr before testing, p<0.001 vs vehicle group", "value": "significant decrease in DI compared with the vehicle group"}
    ]}
  ]
}
